Experimental data from patent US7303740B2, “Methods for the diagnosis and treatment of breast cancer” (Albert Einstein College of Medicine of Yeshiva University, priority 2000, dated 2007).

Tests used:
NIS = target: T1, NIS (Rattus norvegicus, UniProt Q63008); format: in vivo
T1 construct: from tissue; host or cells: living female rats (nubile and lactating): thyroid, stomach, lactating mammary gland
T1 sequence (Q63008 1-618): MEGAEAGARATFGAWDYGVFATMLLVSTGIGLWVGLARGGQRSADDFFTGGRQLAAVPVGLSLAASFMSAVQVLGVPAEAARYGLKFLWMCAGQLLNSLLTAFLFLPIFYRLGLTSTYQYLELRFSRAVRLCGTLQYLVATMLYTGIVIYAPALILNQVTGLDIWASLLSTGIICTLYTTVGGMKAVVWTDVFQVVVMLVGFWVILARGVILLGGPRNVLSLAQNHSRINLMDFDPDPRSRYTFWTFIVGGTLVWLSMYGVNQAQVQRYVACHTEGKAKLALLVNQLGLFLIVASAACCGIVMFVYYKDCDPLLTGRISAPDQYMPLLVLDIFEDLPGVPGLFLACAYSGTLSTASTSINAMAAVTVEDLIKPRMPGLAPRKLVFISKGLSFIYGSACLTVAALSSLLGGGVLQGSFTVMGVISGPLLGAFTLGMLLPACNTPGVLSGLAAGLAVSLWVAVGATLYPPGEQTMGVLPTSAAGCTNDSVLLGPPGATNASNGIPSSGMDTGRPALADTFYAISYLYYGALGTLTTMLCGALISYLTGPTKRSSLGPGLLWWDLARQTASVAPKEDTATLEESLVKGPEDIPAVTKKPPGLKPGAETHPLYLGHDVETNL
Experimental: FIG. 1. Characterization of I^− accumulation and NIS expression in rat lactating MG and stomach. (A)-(C) In vivo scintigraphic imaging of ^99mTcO4^− injected adult female rats. (A) Radiotracer (1.5 mCi) was injected into the tail vein of nubile animals, and pin-hole images of the body were obtained at 30 min post-injection. (B) Lactating rats were imaged 5 min after ^99mTcO4^− injection. (C) To ascertain inhibition of ^99mTcO4^− uptake, ^99mTcO4^− and 20 mg perchlorate were co-injected into the tail vein, followed by static imaging at 5 min. (D) Immunoblot analysis. Membrane fractions isolated from rat tissues were electrophoresed, electrotransferred onto nitrocellulose, and immunoblotted with affinity-purified anti-NIS antibody (Ab) and horseradish peroxidase (HRP) linked anti-rabbit IgG (Amersham-Pharmacia, Piscataway, N.J.). Approximately 40 μg of membrane fractions were incubated (either with or without N-glycosidase F) overnight at 37° C., followed by SDS polyacrylamide gel electrophoresis and Western blot analysis. Lanes 1 and 2: thyroid; lanes 4 and 5: lactating MG; lanes 7 and 8: stomach; lane 10: non-lactating MG; lane 11: muscle; and lane 12: lung. […]

mgNIS [1] = target: T2, mgNIS (Mus musculus, UniProt Q99PN0); format: in vivo, mice; set-up: Membrane fractions isolated from MG of nubile female mice; from tissue; host or cells: CD1 (ICR) mice (intact, ovariectomized, gestating) and MMTV-ras / MMTV-neu transgenic mice: mammary gland, mammary adenocarcinoma, stomach
T2 sequence (Q99PN0 1-618): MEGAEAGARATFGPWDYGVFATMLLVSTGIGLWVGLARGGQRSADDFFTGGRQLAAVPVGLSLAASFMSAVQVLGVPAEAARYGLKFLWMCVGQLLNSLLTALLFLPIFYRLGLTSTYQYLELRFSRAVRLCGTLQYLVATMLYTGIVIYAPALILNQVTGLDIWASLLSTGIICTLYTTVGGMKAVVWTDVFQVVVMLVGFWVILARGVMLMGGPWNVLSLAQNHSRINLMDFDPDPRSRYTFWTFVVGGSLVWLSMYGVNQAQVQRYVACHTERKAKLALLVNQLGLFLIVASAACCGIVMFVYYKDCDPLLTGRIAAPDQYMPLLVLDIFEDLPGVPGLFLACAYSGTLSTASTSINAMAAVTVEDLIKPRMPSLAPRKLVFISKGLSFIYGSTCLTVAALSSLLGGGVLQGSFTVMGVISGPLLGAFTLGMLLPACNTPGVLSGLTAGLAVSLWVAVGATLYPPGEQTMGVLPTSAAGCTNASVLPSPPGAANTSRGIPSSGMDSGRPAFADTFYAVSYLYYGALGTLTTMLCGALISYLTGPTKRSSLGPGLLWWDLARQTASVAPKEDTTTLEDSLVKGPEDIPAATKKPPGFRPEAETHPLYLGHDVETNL
Experimental: Analysis of mammary adenocarcinomas in MMTV-ras and MMTV-neu transgenic mice. (A) Photograph of MMTV-ras transgenic mouse with a mammary adenocarcinoma. Transgenic mice were anaesthetized with intramuscular sodium pentobarbital injections. […] (E) Dynamic curves of percent injected dose per pixel were calculated by drawing regions of interest around tumoral tissue and the mediastinum, and dividing the counts per pixel (average counts) within each region of interest by the initial whole-body count value, thereby yielding a percent injected dose per pixel. (F) Immunoblot analysis of membrane fractions isolated from MMTV-ras tumor with anti-NIS Ab. (I) Immunoblot analysis of membrane fractions isolated from MMTV-neu tumors with anti-NIS Ab. In an MMTV-neu mouse with two adjacent mammary glands containing tumors, each tumor is indicated with an arrow and numbered. Lanes “tu1”, “tu2”, and “mg” correspond to proteins extracted from tumor 1, tumor 2, and contralateral normal mammary gland, respectively.
To assess whether specific active I^− uptake (a result of mgNIS expression) occurred in the mammary tumoral cells, transgenic animals were imaged in vivo with either ^131I^− or ^99mTcO4^−. […] Quantification of the accumulation of the various tracers in the tumor, as a function of time, is also shown for the ras mouse.

mgNIS [2] = target: T3, mgNIS (Homo sapiens, UniProt Q92911); test: 99mTc-pertechnetate scintigraphy of a person with locally-advanced breast cancer; format: in vivo; settings: whole-body scan, invasive ductal carcinoma
T3 construct: from tissue; host or cells: person with locally-advanced invasive ductal carcinoma of the breast (whole-body scan)
T3 sequence (Q92911 1-643): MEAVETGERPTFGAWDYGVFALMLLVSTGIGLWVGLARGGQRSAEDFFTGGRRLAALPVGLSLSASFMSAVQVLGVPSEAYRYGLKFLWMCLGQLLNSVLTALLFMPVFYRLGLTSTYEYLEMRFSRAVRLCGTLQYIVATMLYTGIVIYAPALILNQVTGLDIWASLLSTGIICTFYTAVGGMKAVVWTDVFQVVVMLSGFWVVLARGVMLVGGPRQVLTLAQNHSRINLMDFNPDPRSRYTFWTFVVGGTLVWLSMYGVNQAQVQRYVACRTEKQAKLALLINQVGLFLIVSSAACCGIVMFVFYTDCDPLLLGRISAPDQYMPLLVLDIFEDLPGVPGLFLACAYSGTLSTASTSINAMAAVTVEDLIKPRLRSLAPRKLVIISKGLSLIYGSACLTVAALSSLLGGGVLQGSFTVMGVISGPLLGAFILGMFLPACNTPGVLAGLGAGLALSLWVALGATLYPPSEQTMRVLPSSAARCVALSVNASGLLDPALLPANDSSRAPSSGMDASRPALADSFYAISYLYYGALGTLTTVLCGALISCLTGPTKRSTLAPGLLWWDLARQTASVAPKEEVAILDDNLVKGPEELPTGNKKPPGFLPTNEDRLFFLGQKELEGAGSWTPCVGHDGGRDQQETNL
From the text: FIG. 7. ^99mTc-pertechnetate scintigraphy of a person with a locally-advanced cancer of the right breast and an enlarged thyroid. The patient was scanned after injection of 15 mCi of ^99mTc-labeled pertechnetate (^99mTcO4^−). Tracer accumulates in the thyroid and stomach. Tracer is present in the heart and liver due to vascular pooling. The arrow indicates distinct accumulation in the area of the breast cancer.
The results obtained from the studies on transgenic mice, and the similarity between the human breast cancer immunohistochemical patterns and those observed in thyroid cancer, indicate the likelihood that mgNIS expressed in human breast tumors is active. Clearly, the most direct way to determine the activity of mgNIS in breast cancer is to subject patients to scintigraphic evaluation with ^99mTcO4^−. One patient who was undergoing neoadjuvant hormonal therapy for locally-advanced breast cancer presented initially with an enlarged thyroid. Accordingly, they underwent whole-body ^99mTcO4^− scanning.

mgNIS [3] = target: T2, mgNIS; settings: mice, 18th day of gestation, subcutaneous injection
Experimental: Animals at indicated days of gestation (3rd, 11th, or 18th) received a single dose of 1 μCi ^125I^− by subcutaneous injection in 100 μl of PBS. One hour later, MG were surgically removed, and radioactivity was quantified in a γ-counter (LKB 1282 Compugamma, Md.). Obtained values were standardized according to the weight of MG removed from each mouse, and were expressed as the ratio of radioiodide in MG tissue versus blood.

mgNIS [4] = target: T2, mgNIS; test: Ex vivo scintigraphic imaging of 99mTcO4- accumulation in organs of oxytocin-treated nubile mice; set-up: Membrane fractions isolated from MG of nubile female mice; from tissue; host or cells: CD1 (ICR) mice (intact, ovariectomized, gestating) and MMTV-ras / MMTV-neu transgenic mice: mammary gland, mammary adenocarcinoma, stomach; settings: 2 mg perchlorate with tracer
Experimental: FIG. 3. In vivo effect of oxytocin on functional expression of mgNIS in nubile mice. (A) Radioiodide transport in MG of oxytocin-treated nubile mice. Seven- to eight-week-old female mice were treated subcutaneously with phosphate buffered saline solution (PBS), 10 I.U. of prolactin (PRL), 1 I.U. of oxytocin (OXY), or prolactin and oxytocin (PRL+OXY) for three days. Then, 1 μCi of ^125I^− was injected intraperitoneally. […] (B) Immunoblot analysis of MG from hormonally-treated mice. […] Isolated membrane fractions were electrophoresed, electrotransferred onto nitrocellulose, and analyzed by immunoblots using anti-NIS Ab. […] Perchlorate-inhibited accumulation of ^99mTcO4^− was detected in stomach and MG of OXY-treated animals. (D) Quantification of ^99mTcO4^− accumulation in various organs from OXY- or PBS-treated mice. Tracer accumulation was monitored using image analysis software (ImageQuant, Macintosh). […] Counts were divided by the weight of the organs (cpm/mg tissue), and standardized by dividing them by cpm detected in the blood (cpm/mg blood) of each animal. ^99mTcO4^− accumulation in the organs from: PBS-treated animals (open bars); OXY-treated animals (dotted bars); and OXY-treated animals after ^99mTcO4^−+perchlorate injection (dark bars). […]

[5] = lactating rats, single intraperitoneal injection

Structure (SMILES): [O]=[99Tc](=[O])(=[O])[O-] [^99mTcO4^−, ^99mTc-pertechnetate]
- time to concentration of 99mTcO4- in all pairs of MGs (NIS; lactating rats, tail vein injection): ≤ 5 min
- tracer accumulation in mammary tumor (mgNIS [1]; MMTV-ras and MMTV-neu mice, tail vein injection): accumulated in the stomach and tumor
- tracer distribution in patient with breast tumor (mgNIS [2]): concentrated in the area of this patient's breast tumor

Structure (SMILES): [125IH] [^125I^−, radioiodide]
- 125I- concentration in lactating MG (lactating rat): concentrated in lactating MG
- 125I- concentration in milk with respect to blood [5]: > 60 fold
- time of saturation of 125I- accumulation in milk [5]: ~2 h
- 125I- concentration in skeletal muscle or non-lactating MG (rat, in vivo): not concentrated
- accumulation of radioiodide in MG compared with blood concentration (mgNIS [3]): 15 fold

Structure (SMILES): [O-][Cl+3]([O-])([O-])O [perchlorate]
- effect on 99mTcO4- accumulation in organs (mgNIS [4]): inhibited
- effect on 99mTcO4- concentration in thyroid, stomach, and lactating MG (NIS; lactating rat, 20 mg perchlorate co-injected, imaging at 5 min): effectively prevented
- effect on 99mTcO4- accumulation in tumor and stomach (mgNIS [1]; co-injected with the isotope): prevented
